Earlier results in US4127539A, “Novel hexacosapeptides, intermediates therefore and pharmaceutical compositions and methods employing said hexacosapeptides” (priority 1977, dated 1978).

Experiments:
[1] = tested on: partially purified brain opiate receptor sites; conditions: literature, background section
[2] = literature, background section
rat = conditions: injected directly into the brain of the rat

H-Tyr-Gly-Gly-Phe-Met-OH [methionine enkephalin]
binding to partially purified brain opiate receptor sites [1]: binds stereo-specifically | activity in bioassays for opiate activity [2]: very active | analgesic effect (rat): only weak analgesic agent of short duration
